Key:
Assay type in all cases: cell-based, human
MCF-7 cells [1] = test: MTT cell viability assay on MCF-7 cells; details: for IC50: Homo sapiens, MCF7, 2 h incubation, breast cancer cells, used for both cell lines, read-out: Drug IC50 concentration from MTT survival curves; for Concentrations giving statistically significant decrease in survival: MCF-7, 2 h incubation with anticancer drug, MTT
Experimental: (§1) Unless otherwise indicated, in experiments, cells were seeded at an appropriate density for the specific assay into 96-well plates or Petri dishes. They were then incubated in standard culture conditions, which included a temperature of 37 °C, 100% relative humidity, and a 5% CO2 incubator. […] After treatment, the cells were washed with PBS and, depending on the experiment, immediately used for measurement or cultured in a fresh medium for 24 or 48 h. Control cells were treated with a corresponding volume of PBS. Additional controls for solvents were also performed.
(§2) The principle of the method is a measurement of the absorbance of formazan, a product of the reduction of the water-soluble tetrazolium salt (MTT) by NADPH-dependent cellular oxidoreductases (mainly succinate dehydrogenase) in living cells. Formazan is insoluble in water and precipitates as purple crystals. The amount of formazan is proportional to the number of living and metabolically active cells.
(§3) After treatment, the cells were washed with PBS and cultured in a fresh medium for 48 h. Subsequently, the medium was aspirated, and an aliquot of 50 µL of 0.05 mg/mL MTT solution was added to each microplate well for 3 h. The formazan crystals were dissolved in dimethyl sulfoxide (DMSO), and the absorbance was measured at a wavelength of λ = 580 nm. The percentage of viable cells was calculated by comparing the absorbance value of the test samples to the absorbance value of the control, taking the absorbance of the control as 100%.

HUVEC-ST cells [2] = test: MTT cell viability assay on HUVEC-ST cells; details: HUVEC-ST, MTT
Experimental: as §1, §2, §3

MCF-7 cells [3] = test: Annexin V FITC/propidium iodide double staining in MCF-7 cells; details: for Viable cells: docetaxel IC50 alone
Experimental: as §1
(§4) This assay is based on the principle that, in viable cells, phosphatidylserine (PS) is located in the inner membrane (side facing the cytoplasm). However, upon induction of apoptosis, PS is translocated to the outer membrane (PS also appears on the necrotic cell surface). The exposed phosphatidylserine can be detected by protein Annexin V stained with FITC dye. The addition of propidium iodide (PI) enabled necrotic cells to be distinguished. Thus, this method is convenient for counting and differentiating live cells from those undergoing apoptosis or necrosis.
(§5) The analysis was performed according to the manufacturer’s protocol on cells immediately after the treatment and 24 or 48 h postincubation. Samples were analyzed using the flow cytometer LSR® II from Becton Dickinson (San Jose, CA, USA) using an argon laser with a wavelength of λ = 488 nm.

[4] = Annexin V FITC/propidium iodide double staining in HUVEC-ST cells; details: human, HUVEC-ST cells, doxorubicin IC50 alone, longest postincubation time (48 h), read-out: Viable cells
Experimental: as §1, §4, §5

MCF-7 cells [5] = test: Mitochondrial membrane potential (JC-1) in MCF-7 cells; details: anticancer drug IC50 alone 2 h, control = 100%
Experimental: as §1
(§6) The mitochondrial membrane potential was measured with the membrane-permeant JC-1 fluorescent probe. […] Thus, the measurement of the ratio of JC-1 dimer to monomer fluorescence can be used for estimating changes in mitochondrial membrane potential (ΔΨm).
(§7) The cells were then incubated in complete darkness for 30 min at 37 °C. After incubation, the cells were washed to remove the dye and suspended in fresh HBSS solution. Finally, the fluorescence intensity was measured using a Cary Eclipse spectrofluorometer (Varian, Inc.) at λex/em = 475 nm/530 nm for monomers and at λex/em = 535 nm/590 nm for dimers. Subsequently, the ratio of the fluorescence intensities at 530 nm/590 nm was calculated. The mitochondrial potential in both cell lines was measured immediately after incubation with investigated compounds. The results are expressed as a percentage of the control, considered 100%.

HUVEC-ST cells [6] = test: Mitochondrial membrane potential (JC-1) in HUVEC-ST cells; details: anticancer drug IC50 alone 2 h, control = 100%
Experimental: as §1, §6, §7

HUVEC-ST cells [7] = test: Alkaline comet assay in HUVEC-ST cells; details: doxorubicin IC50 alone, 48 h after incubation
Experimental: as §1
The comet assay, also known as the single-cell gel electrophoresis assay, is a highly sensitive and versatile method for measuring single- and double-stranded DNA breaks. The assay uses an electric field to move negatively charged DNA fragments through an agarose gel. The amount of migration reflects the level of DNA damage in the cells.
The analysis was performed under alkaline conditions, according to the method of Singh et al., on cells immediately after the treatment and 24 or 48 h postincubation. A suspension of cells was mixed with low-melting-point agarose (LMP type XI) and spread onto a microscope glass slide previously coated with standard melting point agarose (NMP type I). After 2 h of cells lysis in a buffer containing (2.5 mol/L NaCl, 100 mmol/L Na2-EDTA, 10 mmol/L TRIS, 1% Triton X-100), DNA unwinding and electrophoresis were carried out in a buffer containing (1 mmol/L Na2-EDTA, 300 mmol/L NaOH) and (29 V, 30 mA). Before analysis, the slides were stained with DAPI solution (2 μg/mL). One hundred randomly chosen cells were analyzed on each slide using a fluorescence microscope Zeiss Axio Scope A1 (Carl Zeiss, Oberkochen, Germany) with a video camera connected to the image-analysis system Lucia-Comet v. 7.60 (Laboratory Imaging, Praha, Czech Republic).

HUVEC-ST cells [8] = test: Annexin V FITC/propidium iodide double staining in HUVEC-ST cells; details: docetaxel IC50 alone
Experimental: as §1, §4, §5

With COc1cccc2c1C(=O)c1c(O)c3c(c(O)c1C2=O)C[C@@](O)(C(=O)CO)C[C@@H]3O[C@H]1C[C@H](N)[C@H](O)[C@H](C)O1 [doxorubicin, Doxorubicin] the IC50 (MCF-7 cells [1]) was 3000 nM, the “Concentrations giving statistically significant decrease in survival” value (MCF-7 cells [1]) was at least 1 µmol/L and the Viable cells (MCF-7 cells [1]; MCF-7, doxorubicin 3 µmol/L used alone) was 54%. The “Concentrations giving statistically significant decrease in survival” value (HUVEC-ST cells [2]; 2 h incubation with anticancer drug) was at least 0.5 µmol/L, the “AV+/PI− cells (undergoing apoptosis)” value (MCF-7 cells [3]; doxorubicin IC50 alone, 48 h post-incubation) was 12% and the viability [4] was 47%. For the same molecule, the “Mitochondrial membrane potential ΔΨm, % of control” value (MCF-7 cells [5]) was 57%, the “Mitochondrial membrane potential ΔΨm, % of control” value (HUVEC-ST cells [6]) was 73% and the “DNA in the comet tail” value (HUVEC-ST cells [7]) was 10%.

For CC(=O)O[C@@]12CO[C@@H]1C[C@H](O)[C@@]1(C)C(=O)[C@H](O)C3=C(C)[C@@H](OC(=O)[C@H](O)[C@@H](NC(=O)OC(C)(C)C)c4ccccc4)C[C@@](O)([C@@H](OC(=O)c4ccccc4)[C@H]21)C3(C)C [docetaxel], the IC50 (MCF-7 cells [1]) was 100 nM, the “Concentrations giving statistically significant decrease in survival” value (MCF-7 cells [1]) was at least 0.02 µmol/L and the “Decrease in survival at highest concentration” value (HUVEC-ST cells [2]; 6 µmol/L, 2 h incubation) was 20%. The Viable cells (MCF-7 cells [3]; 24 h after incubation) was 53%, the Viable cells (MCF-7 cells [3]; 48 h after incubation) was 43% and the “AV+/PI+ cells” value (HUVEC-ST cells [8]; 24 h after incubation) was 23%. For the same molecule, the “AV+/PI+ cells” value (HUVEC-ST cells [8]; longest postincubation time (48 h)) was 26%, the “Mitochondrial membrane potential ΔΨm, % of control” value (MCF-7 cells [5]) was 65% and the “Mitochondrial membrane potential ΔΨm, % of control” value (HUVEC-ST cells [6]) was 54%.

Source: article PMC11173533, “Baicalin and Baicalein Enhance Cytotoxicity, Proapoptotic Activity, and Genotoxicity of Doxorubicin and Docetaxel in MCF-7 Breast Cancer Cells” (Molecules, 2024)
